Patent US10287267B2, “Isoquinolin-3-yl carboxamides and preparation and use thereof” (Samumed, LLC, priority 2016, dated 2019)

Columns and labels:
[1] = tested on: Wnt pathway (Sp5-Luc reporter, TCF/LEF binding sites) in SW480 colon carcinoma cells; assay: Screening assay for Wnt activity: Sp5-Luc reporter gene assay; format: cell-based, human; conditions: Homo sapiens; Sp5-Luc reporter, SW480 cells, 36 to 48 hours;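 note: firefly luciferase luminescence read in stably transduced SW480 cells carrying the Sp5 promoter reporter with eight TCF/LEF sites, compounds given in 0.1% DMSO final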
Method: The screening assay for Wnt activity is described as follows.
Following incubation, 15 μl of BriteLite Plus luminescence reagent (Perkin Elmer) was added to each well of the 384-well assay plates. The plates were placed on an orbital shaker for 2 min and then luminescence was quantified using the Envision (Perkin Elmer) plate reader.

[2] = molecular target: recombinant DYRK1A kinase (Homo sapiens (Human), UniProt Q13627); assay: DYRK1A kinase assay (Ser/Thr 18 peptide Z-lyte FRET); format: biochemical; conditions: 30 μM ATP, 1 h room temperature;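 note: Read-out is the coumarin to fluorescein emission ratio, referenced to unphosphorylated (0%) and phosphorylated (100%) Ser/Thr 18 peptide controls, values from dose-response curves by non-linear regression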
recombinant GSK3β kinase = recombinant GSK3β kinase (Homo sapiens (Human), UniProt P49841); assay: GSK3β kinase assay (Ser/Thr 09 peptide Z-lyte FRET); format: biochemical; conditions: 46 μM ATP, 1 h room temperature;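 note: kinase activity read as coumarin to fluorescein emission ratio, 11-point threefold dilutions from 10 µM to 0.0003 µM in duplicate, unphosphorylated and phosphorylated peptide as 0% and 100% controls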
recombinant GSK3β kinase, sequence (P49841 whole entry): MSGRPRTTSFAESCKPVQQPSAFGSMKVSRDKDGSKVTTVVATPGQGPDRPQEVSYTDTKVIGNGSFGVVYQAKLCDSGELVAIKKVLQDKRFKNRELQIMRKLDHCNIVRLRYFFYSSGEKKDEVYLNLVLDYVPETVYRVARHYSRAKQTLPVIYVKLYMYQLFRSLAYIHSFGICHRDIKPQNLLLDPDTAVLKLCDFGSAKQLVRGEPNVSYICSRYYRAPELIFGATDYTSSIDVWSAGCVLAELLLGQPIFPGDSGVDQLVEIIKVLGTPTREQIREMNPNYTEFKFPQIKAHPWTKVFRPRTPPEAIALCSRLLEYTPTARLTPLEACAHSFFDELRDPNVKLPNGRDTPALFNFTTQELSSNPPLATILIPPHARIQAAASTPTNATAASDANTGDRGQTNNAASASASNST

[3] = tested on: Tau phosphorylation at Ser396 (pSer396); assay: Tau phosphorylation assay (pSer396 ELISA / western blot) in SH-SY5Y cells; format: cell-based, human; conditions: Homo sapiens; SH-SY5Y cells, overnight (16-18 h) exposure; read-out: pSer396 Tau EC50;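 note: EC50 for reduction of Tau pSer396 in lysed cells, measured by colorimetric ELISA or chemiluminescent western blot, both using the same pSer396 antibody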
[4] = tested on: SW480 colon carcinoma cells; assay: Cell viability assay (CellTiter-Glo); format: cell-based, human; conditions: Homo sapiens; for EC50: 96 h, SW480 cells, CellTiter-Glo, four days incubation
[5] = tested on: α-smooth muscle actin (αSMA) positive LL29 cells; assay: Inhibition of fibrotic process: αSMA in TGF-β1 treated primary human fibroblasts from IPF patients; format: cell-based; conditions: Homo sapiens, Fibroblast; for EC50: 96 h, Table 8, LL29 fibroblasts from IPF patients, TGF-β1 20 ng/mL, 4 days, dose-response 10 μM to 0.94 nM;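 for all read-outs here: controls were TGF-β1 stimulated wells with DMSO vehicle (positive) and cells given DMSO alone (negative), cultured in F12 medium with 1% fetal bovine serum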
IL-6 [6] = assay: IL-6 inhibition in LPS-stimulated human peripheral blood mononuclear cells (HTRF); format: cell-based; conditions: Homo sapiens, PBMC; for EC50: Table 9, huPBMCs, LPS 50 ng/mL, 22 hours, dose-response starting from 10 μM;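 for all read-outs here: IL-6 detected by HTRF with an XL665- and Cryptate-labelled anti-IL-6 antibody pair, samples run in duplicate, EC50 obtained from a four-parameter Levenberg-Marquardt curve fit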
Method: After 22 hour incubation, a mixture of anti-IL6 XL665 and anti-IL-6 Cryptate diluted in reconstitution buffer (Catalog #62IL6PEC, Cisbio Inc., Bedford, Mass.) was added to each well. […] All samples were processed in duplicate. […] EC50 was determined using software generated by Dotmatics Limited (Windhill Bishops Stortford Herts, UK) using the Levenberg-Marquardt 4 parameter fitting procedure with finite different gradients.

TNFα = assay: Secreted cytokines in lipopolysaccharide-stimulated BV-2 mouse microglial cells: TNFα; format: cell-based; conditions: BV-2 cells, compounds overnight, LPS 250 ng/mL 5 h
Method: (§1) Representative compounds were screened using the cell-based assay procedure for secreted cytokines in a Lipopolysaccharide-stimulated mouse glial cell line described below.
(§2) BV-2 cells (mouse microglial cells) were cultured in 1:1 DMEM medium supplemented with 10% FBS, and 1% penicillin/streptomycin.
(§3) BV-2 cells are plated at 35,000 cells/well in a volume of 100 ul for at least 4 hours before compounds are added. DMSO-resuspended compounds were first dispensed in a 96 well plate and serial diluted from 10 μM to 4.6 nM final concentration in medium. Compounds were added to cells overnight. Two hundred fifty ng per milliliter of lipopolysaccharide (Escherichia coli O55:B5, SIGMA) was added for 5 h. Supernatant is removed and saved for further cytokine detection. The original plates with seeded cells were tested for cytotoxicity by measure of adenosine triphosphate (ATP) release by adding CellTiter-Glo® diluted 1:4 in distilled water (G7573, Promega) and transferring lysed cells to a completely black 96-well plate to be read with the Cytation3. Supernatant was then diluted 1:2 with a diluent from V-PLEX cytokine Kit and directly tested for the secreted cytokines TNFα, IL-6 and KC-GRO using electrochemiluminescence (Meso Scale Discovery). The standard curve for each cytokine was used to convert the electrochemiluminescent signal into pg of protein per mL.

IL-6 [7] = assay: Secreted cytokines in lipopolysaccharide-stimulated BV-2 mouse microglial cells: IL-6; format: cell-based; conditions: Mus musculus; BV-2 cells, compounds overnight, LPS 250 ng/mL 5 h
Method: as §1, §2, §3

KC-GRO = assay: Secreted cytokines in lipopolysaccharide-stimulated BV-2 mouse microglial cells: KC-GRO; format: cell-based; conditions: BV-2 cells, compounds overnight, LPS 250 ng/mL 5 h
Method: as §1, §2, §3

[8] = read-out: percent value in parentheses beside EC50 >10 μM

Structure (SMILES)	EC50 [1]	EC50 [2]	EC50 (recombinant GSK3β kinase)	EC50 [3]	EC50 [4]	EC50 [5]	inhibition at 10 µM [5, 8]	EC50 (IL-6 [6])	EC50 (TNFα)	EC50 (IL-6 [7])	EC50 (KC-GRO)	inhibition at 10 µM ([4]; SW480, read-out: percent inhibition at 10 μM)	inhibition at 10 µM (IL-6 [6]; [8])
Cc1nnc(-c2ccc3cnc(NC(=O)C4CCN(CC(C)C)CC4)cc3c2)o1 [Compound 1020, 1-Isobutyl-N-(6-(5-methyl-1,3,4-oxadiazol-2-yl)isoquinolin-3-yl)piperidine-4-carboxamide]	1140 nM	10.4 nM	13 nM	49 nM	1030 nM	> 10000 nM	30.6%	1180 nM	597 nM	87 nM	708 nM		
CN1CCN(CC(=O)Nc2cc3cc(-c4cn(C)nn4)ccc3cn2)CC1 [Compound 500, N-(6-(1-Methyl-1H-1,2,3-triazol-4-yl)isoquinolin-3-yl)-2-(4-methylpiperazin-1-yl)acetamide]	3230 nM	10.6 nM	23 nM	388 nM	> 10000 nM	675 nM		> 10000 nM	1200 nM	34 nM	7 nM	25.1%	4%
Cn1cc(-c2ccc3cnc(NC(=O)C4CCN(CC(C)(C)O)CC4)cc3c2)cn1 [Compound 1006, 1-(2-Hydroxy-2-methylpropyl)-N-(6-(1-methyl-1H-pyrazol-4-yl)isoquinolin-3-yl)piperidine-4-carboxamide]	704 nM	3 nM	50 nM	296 nM	584 nM	61 nM		1130 nM	24 nM	11 nM	27 nM		
